The text below walks through data of ChEMBL document CHEMBL5465560, “Selectivity Literature for EUbOPEN Chemogenomic Library” (2024).

In experiment [1] the target is Protein-tyrosine kinase 2-beta (Homo sapiens) (UniProt Q14289). Kind of experiment: Selectivity interaction (Kinase panel (Z-LYTE Assay)) EUB0001632a PTK2B. Particulars: at 10 µM.
For experiment [2], the target named is Ephrin type-A receptor 2 (Homo sapiens) (UniProt P29317). Description: Selectivity interaction (Kinase panel (Z-LYTE Assay)) EUB0001632a EPHA2. Particulars: at 10 µM.
The target in experiment [3] is Serine/threonine-protein kinase 33 (Homo sapiens) (UniProt Q9BYT3). Description: Selectivity interaction (KinomeScan (DiscoverX)) EUB0000666a STK33. Particulars: at 10 µM.
Experiment [4] relates to Epidermal growth factor receptor (Homo sapiens), P00533 [G719S]. Particulars: at 10 µM.
For experiment [5], the target named is Interferon-induced, double-stranded RNA-activated protein kinase (Homo sapiens) (UniProt P19525). Kind of experiment: Selectivity interaction (ActivX KiNativ screen (kinase selectivity in THP-1 cell lysates)) EUB0000639a EIF2AK2. In kind it is subcellular. Particulars: lysate.
Experiment [6] has as its target T1, Mitogen-activated protein kinase 15 (Homo sapiens) (UniProt Q8TD08).
T1 sequence (whole entry): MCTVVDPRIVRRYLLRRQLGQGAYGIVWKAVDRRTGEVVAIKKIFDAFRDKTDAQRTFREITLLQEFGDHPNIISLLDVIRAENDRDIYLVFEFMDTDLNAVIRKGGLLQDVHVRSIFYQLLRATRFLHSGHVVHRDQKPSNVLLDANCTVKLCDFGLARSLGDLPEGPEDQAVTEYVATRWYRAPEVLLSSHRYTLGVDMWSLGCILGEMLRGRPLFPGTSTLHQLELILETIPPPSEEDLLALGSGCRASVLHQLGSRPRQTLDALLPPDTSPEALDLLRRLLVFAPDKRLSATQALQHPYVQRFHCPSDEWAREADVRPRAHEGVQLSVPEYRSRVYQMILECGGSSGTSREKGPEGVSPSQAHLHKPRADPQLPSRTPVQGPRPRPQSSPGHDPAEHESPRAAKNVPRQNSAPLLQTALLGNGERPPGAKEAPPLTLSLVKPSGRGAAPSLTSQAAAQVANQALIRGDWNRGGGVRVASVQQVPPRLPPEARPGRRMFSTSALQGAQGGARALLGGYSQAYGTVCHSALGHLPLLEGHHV
Description: Selectivity interaction (KinomeScan (DiscoverX)) EUB0000045b MAPK15.

For experiment [7], the system named is Tyrosine-protein kinase ABL1 (Homo sapiens), P00519 [H396P]. Description: (§1) Selectivity interaction (KinomeScan (DiscoverX)) EUB0000045b ABL1.
Experiment [8] concerns the target Tyrosine-protein kinase ABL1 (Homo sapiens, UniProt P00519). The description is as §1.
Experiment [9] deals with Tyrosine-protein kinase ABL1 (Homo sapiens), P00519 [F317I]. Described as §1.
Experiment [10] deals with Tyrosine-protein kinase ABL1 (Homo sapiens), P00519 [T315I]. The description is as §1.
Experiment [11] relates to Tyrosine-protein kinase ABL1 (Homo sapiens), P00519 [F317L]. Described as §1.
The test system of experiment [12] is Tyrosine-protein kinase ABL1 (Homo sapiens), P00519 [E255K]. The description is as §1.
In experiment [13] the test system is Tyrosine-protein kinase ABL1 (Homo sapiens), P00519 [Y253F]. The experiment is described as §1.
The test system of experiment [14] is Tyrosine-protein kinase ABL1 (Homo sapiens), P00519 [Q252H]. The description is as §1.
The test system of experiment [15] is Tyrosine-protein kinase ABL1 (Homo sapiens), P00519 [M351T]. Described as §1.
Experiment [16] deals with Serine/threonine-protein kinase PRP4 homolog (Homo sapiens) (UniProt Q13523). Description: Selectivity interaction (Ambit KINOMEscan and KiNATiv profiling in Jurkat cells) EUB0000090b PRPF4. In kind it is cell-based. Particulars: at 1 µM.
The target of experiment [17] is Tyrosine-protein kinase SYK (Homo sapiens, UniProt P43405). Description: Selectivity interaction (KinomeScan (DiscoverX)) EUB0000618a SYK. Particulars: at 10 µM.
The target of experiment [18] is T2, Serine/threonine-protein kinase Chk1 (Homo sapiens) (UniProt O14757).
T2 sequence (whole entry): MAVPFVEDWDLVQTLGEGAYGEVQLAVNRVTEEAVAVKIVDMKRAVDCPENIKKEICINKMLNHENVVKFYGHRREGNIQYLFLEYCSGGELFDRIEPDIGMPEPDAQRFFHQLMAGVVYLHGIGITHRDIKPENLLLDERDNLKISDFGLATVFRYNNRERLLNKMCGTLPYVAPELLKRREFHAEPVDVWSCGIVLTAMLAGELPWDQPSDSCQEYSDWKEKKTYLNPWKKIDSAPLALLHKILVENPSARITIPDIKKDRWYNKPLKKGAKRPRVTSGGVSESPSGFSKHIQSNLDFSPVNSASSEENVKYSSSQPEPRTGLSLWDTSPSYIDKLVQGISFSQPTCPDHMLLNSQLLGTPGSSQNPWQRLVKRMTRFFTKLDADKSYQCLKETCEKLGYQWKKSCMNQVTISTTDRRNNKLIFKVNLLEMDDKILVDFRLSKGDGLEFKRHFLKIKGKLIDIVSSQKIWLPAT
Kind of experiment: Selectivity interaction (KinomeScan (DiscoverX)) EUB0001079a CHEK1. Particulars: at 1 µM.

Experiment [19] concerns the target Phosphatidylinositol 4-phosphate 5-kinase type-1 gamma (Homo sapiens) (UniProt O60331). Description: Selectivity interaction (KinomeScan (DiscoverX)) EUB0001079a PIP5K1C. Particulars: at 1 µM.
In experiment [20] the target is RAC-gamma serine/threonine-protein kinase (Homo sapiens, UniProt Q9Y243). Description: Selectivity interaction (KinomeScan (DiscoverX)) EUB0001079a AKT3. Particulars: at 1 µM.
RAC-gamma serine/threonine-protein kinase, sequence (Q9Y243 whole entry): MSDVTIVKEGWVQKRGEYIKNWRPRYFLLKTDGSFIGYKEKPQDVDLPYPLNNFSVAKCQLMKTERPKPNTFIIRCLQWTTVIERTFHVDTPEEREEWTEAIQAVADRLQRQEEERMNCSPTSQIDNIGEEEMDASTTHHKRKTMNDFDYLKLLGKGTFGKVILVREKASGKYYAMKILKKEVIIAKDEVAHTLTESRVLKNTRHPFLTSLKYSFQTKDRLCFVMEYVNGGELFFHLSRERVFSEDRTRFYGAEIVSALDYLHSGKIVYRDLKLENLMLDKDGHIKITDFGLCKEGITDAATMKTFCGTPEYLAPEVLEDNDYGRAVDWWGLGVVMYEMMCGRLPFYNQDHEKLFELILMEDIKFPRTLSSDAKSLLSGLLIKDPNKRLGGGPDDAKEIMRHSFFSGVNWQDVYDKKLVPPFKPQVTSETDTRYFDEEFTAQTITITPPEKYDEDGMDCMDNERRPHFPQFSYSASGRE

Interferon-induced, double-stranded RNA-activated protein kinase (Homo sapiens), sequence (P19525 whole entry): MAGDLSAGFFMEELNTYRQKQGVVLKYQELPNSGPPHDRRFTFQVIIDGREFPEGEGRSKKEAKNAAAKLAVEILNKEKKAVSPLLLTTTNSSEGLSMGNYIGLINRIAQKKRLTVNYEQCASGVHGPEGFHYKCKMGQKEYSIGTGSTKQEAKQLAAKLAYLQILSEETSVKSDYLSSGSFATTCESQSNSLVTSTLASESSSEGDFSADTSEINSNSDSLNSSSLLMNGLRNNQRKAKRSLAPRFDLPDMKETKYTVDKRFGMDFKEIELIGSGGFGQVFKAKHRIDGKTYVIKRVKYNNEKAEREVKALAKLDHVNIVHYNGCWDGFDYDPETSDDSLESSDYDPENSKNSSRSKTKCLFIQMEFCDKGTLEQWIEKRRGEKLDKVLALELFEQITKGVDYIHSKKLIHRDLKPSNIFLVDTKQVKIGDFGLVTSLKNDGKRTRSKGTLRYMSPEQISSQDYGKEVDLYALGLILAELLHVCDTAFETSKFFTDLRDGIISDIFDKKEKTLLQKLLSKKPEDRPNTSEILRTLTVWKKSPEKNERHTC
Serine/threonine-protein kinase 33 (Homo sapiens), sequence (Q9BYT3 whole entry, looked up): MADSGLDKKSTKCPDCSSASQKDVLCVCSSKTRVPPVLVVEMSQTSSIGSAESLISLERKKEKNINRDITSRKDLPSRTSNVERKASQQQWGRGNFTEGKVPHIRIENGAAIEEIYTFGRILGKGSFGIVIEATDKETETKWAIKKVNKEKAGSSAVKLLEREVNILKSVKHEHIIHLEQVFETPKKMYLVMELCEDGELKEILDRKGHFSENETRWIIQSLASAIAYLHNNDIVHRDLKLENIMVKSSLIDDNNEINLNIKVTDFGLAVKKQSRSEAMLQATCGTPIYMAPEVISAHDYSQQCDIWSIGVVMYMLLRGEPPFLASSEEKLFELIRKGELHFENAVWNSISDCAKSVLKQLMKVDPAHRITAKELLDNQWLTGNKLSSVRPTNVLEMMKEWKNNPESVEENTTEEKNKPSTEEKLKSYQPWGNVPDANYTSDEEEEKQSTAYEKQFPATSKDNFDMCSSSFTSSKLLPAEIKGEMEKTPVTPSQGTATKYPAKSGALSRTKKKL
Protein-tyrosine kinase 2-beta (Homo sapiens), sequence (Q14289 whole entry, looked up): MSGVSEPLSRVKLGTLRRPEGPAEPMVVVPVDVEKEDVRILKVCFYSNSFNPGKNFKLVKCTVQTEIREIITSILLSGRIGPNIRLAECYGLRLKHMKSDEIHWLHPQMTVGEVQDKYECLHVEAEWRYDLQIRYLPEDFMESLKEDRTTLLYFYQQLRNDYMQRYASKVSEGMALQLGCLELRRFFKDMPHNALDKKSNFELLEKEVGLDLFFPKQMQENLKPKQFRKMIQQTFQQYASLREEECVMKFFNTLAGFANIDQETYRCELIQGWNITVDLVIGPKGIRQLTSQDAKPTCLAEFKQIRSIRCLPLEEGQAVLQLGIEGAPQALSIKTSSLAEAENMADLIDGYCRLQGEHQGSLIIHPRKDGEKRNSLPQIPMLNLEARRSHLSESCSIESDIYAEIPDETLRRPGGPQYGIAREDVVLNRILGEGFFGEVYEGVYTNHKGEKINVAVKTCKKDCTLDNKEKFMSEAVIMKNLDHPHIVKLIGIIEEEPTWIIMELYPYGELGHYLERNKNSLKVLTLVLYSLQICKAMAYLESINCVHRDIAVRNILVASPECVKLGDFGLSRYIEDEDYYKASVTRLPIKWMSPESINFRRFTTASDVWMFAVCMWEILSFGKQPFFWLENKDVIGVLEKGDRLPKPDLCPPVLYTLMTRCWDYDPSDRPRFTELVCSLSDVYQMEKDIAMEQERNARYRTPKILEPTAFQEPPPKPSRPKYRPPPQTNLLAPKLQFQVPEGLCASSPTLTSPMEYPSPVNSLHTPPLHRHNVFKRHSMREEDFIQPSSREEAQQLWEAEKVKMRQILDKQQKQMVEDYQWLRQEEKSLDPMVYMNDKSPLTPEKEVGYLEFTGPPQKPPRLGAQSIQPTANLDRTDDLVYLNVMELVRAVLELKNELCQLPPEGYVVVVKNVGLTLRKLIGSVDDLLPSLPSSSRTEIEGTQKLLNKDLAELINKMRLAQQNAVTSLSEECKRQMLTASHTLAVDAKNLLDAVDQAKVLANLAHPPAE
Epidermal growth factor receptor (Homo sapiens), P00533 [G719S], sequence (P00533 whole entry G719S): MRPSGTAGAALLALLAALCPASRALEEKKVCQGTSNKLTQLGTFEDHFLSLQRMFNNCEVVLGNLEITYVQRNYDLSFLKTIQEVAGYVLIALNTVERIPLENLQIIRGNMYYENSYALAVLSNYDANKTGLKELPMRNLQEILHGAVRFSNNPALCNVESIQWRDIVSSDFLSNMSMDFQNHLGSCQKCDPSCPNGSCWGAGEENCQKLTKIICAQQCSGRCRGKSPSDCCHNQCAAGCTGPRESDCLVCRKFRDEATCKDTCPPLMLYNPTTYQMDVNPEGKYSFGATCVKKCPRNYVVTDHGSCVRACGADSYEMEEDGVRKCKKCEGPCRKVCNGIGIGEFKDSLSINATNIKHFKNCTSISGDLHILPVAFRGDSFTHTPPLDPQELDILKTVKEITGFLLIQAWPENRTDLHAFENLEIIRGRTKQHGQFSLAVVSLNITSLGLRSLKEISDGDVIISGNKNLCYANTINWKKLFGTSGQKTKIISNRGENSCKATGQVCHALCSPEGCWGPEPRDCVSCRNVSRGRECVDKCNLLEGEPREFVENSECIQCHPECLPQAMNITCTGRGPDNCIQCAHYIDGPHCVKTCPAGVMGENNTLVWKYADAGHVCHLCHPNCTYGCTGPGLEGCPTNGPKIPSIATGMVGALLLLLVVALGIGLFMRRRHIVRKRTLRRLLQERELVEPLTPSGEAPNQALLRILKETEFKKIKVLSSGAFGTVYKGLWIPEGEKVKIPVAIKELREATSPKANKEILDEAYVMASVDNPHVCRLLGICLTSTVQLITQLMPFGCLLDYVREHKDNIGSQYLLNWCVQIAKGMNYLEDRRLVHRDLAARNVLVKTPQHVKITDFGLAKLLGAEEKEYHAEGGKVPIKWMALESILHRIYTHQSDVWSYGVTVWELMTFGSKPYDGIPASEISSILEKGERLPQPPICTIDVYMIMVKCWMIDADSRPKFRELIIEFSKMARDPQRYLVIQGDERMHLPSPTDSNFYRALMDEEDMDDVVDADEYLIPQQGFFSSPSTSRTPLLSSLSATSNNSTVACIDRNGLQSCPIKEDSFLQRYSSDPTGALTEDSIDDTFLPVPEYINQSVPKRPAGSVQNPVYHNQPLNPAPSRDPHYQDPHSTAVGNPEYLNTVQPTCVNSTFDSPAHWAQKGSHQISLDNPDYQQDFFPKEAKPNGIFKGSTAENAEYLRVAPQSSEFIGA
Serine/threonine-protein kinase PRP4 homolog (Homo sapiens), sequence (Q13523 whole entry): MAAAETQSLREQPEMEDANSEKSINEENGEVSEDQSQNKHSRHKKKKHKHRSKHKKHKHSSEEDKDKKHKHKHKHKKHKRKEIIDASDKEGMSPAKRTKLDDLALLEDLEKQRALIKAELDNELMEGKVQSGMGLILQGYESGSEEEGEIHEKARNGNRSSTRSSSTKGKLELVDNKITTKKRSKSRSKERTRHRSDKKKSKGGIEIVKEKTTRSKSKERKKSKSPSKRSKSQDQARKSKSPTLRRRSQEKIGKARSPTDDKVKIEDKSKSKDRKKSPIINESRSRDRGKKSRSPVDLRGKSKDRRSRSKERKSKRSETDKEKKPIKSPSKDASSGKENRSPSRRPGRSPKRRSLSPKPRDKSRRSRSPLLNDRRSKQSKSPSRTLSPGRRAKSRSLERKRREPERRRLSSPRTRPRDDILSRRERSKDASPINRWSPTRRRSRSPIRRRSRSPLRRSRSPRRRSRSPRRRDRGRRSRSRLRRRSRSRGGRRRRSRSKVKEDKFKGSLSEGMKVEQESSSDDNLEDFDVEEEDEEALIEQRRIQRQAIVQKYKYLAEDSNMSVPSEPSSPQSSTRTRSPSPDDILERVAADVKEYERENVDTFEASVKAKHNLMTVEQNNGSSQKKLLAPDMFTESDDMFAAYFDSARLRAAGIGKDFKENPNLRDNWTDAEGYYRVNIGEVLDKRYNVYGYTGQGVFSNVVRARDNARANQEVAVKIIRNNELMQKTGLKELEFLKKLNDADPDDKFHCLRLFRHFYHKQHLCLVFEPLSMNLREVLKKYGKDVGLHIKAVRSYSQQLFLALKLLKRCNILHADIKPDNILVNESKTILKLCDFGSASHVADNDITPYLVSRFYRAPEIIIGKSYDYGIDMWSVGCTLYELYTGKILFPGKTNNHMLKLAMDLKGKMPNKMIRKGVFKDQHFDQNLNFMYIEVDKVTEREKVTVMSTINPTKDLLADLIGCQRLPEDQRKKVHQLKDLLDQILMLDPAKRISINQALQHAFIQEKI

In the case of `Cn1cc(-n2cnc3c(NCc4nc5cc(Cl)c(Cl)cc5[nH]4)nc(N4CCOCC4)nc32)cn1`, the % of control in [1] was 6.24%; in [2], 14.4%.
Consider `O=C(NOC[C@H](O)CO)c1ccc(F)c(F)c1Nc1ccc(I)cc1F`, for which, in experiment [3], the % of control was 79%.
Regarding `Cc1cc([C@@H](C)Nc2ccccc2C(=O)O)c2nc(N3CCOCC3)cc(=O)n2c1` [AZD-6482], the % of control in experiment [4] is 98%.
For `CC[C@@H]1[C@H](F)C(=O)N[C@@H]1COc1nccc2cc(C(N)=O)c(OC)cc12` [ZIMLOVISERTIB], the % of inhibition in experiment [5] (at 0.01 µM) is 0.5%; in experiment [5] (at 0.04 µM) it was -0.3%; in experiment [5] (at 0.2 µM), 7.5%; in [5] (at 1 µM), -3.5%; in [5] (at 5 µM) it was -12.9%.
Regarding `C=CC(=O)Nc1cc(-n2c(=O)ccc3cnc4ccc(-c5ccc(NS(C)(=O)=O)cc5)cc4c32)ccc1C`, the % of control in [6] (at 1 µM) came to 100%; in experiment [6] (at 10 µM), 100%; in experiment [7] (at 1 µM), 100%; in experiment [7] (at 10 µM), 100%; in experiment [8] (at 1 µM) it was 100%; in [8] (at 10 µM), 73%. In addition, the % of control in [9] (at 1 µM), in [9] (at 10 µM), in experiment [10] (at 1 µM), in experiment [10] (at 10 µM), in [11] (at 1 µM) and in [11] (at 10 µM) was 100% in each case. The % of control in [12] (at 1 µM) is 63%; in [12] (at 10 µM), 77%; in [13] (at 1 µM), 100%; in experiment [13] (at 10 µM), 76%; in experiment [14] (at 1 µM), 100%; in [14] (at 10 µM) it was 100%. Moreover, the results for the % of control in experiment [15] (at 1 µM) and in [15] (at 10 µM) were 90% and 86%, respectively.
In experiment [16], `CN(C)C/C=C/C(=O)Nc1ccc(C(=O)N2CCCC(Nc3ncc(Cl)c(-c4c[nH]c5ccccc45)n3)C2)cc1` (centres undefined) came in with a % of control of 74%.
In [17], `O[C@H]1CC[C@H](Nc2ncc3nc(Nc4c(F)cc(F)cc4F)n([C@H]4CCOC4)c3n2)CC1` yielded a % of control of 100%.
In the case of `Nc1cnc(N2CCc3cc(S(=O)(=O)Nc4c(F)cc(Cl)cc4F)cc(N4CCCC4=O)c32)nc1` [TP-020n], the values for the % of control in experiment [18], in experiment [19] and in experiment [20] were 95%, 75% and 94%, respectively.
